GI50 data for one compound are collected here from article PMC3751846, “BET Inhibition Silences Expression of MYCN and BCL2 and Induces Cytotoxicity in Neuroblastoma Tumor Models” (PLoS ONE, 2013).

Common to all, as to experiment: cells
Test [1] deals with LA1-5s. Also on record: species or system neuroblastoma cell lines; 6 day growth-death assay, CyQuant Direct read-out, mid-point of growth window (DMSO to T0). Conditions: Neuroblastoma cell, 144 h; CyQuant, 6 days; read-out: gIC50 CyQuant. The procedure: (§1) Cell line growth-death assays were performed as described, with a few modifications. Briefly, cells were seeded into 384-well or 96-well plates at a density optimized for 6 days of growth. The following day, T0 measurements were taken using CellTiter-Glo (CTG; Promega, Madison, WI), CellTiter-Fluor (Promega), or CyQuant Direct (Life Technologies), following the manufacturer’s instructions. Plates were read on an Envision (PerkinElmer, Waltham, MA), Safire 2 (Tecan, Durham, NC), or SpectraMax Gemini EM (Molecular Devices, Sunnyvale, CA) plate reader. […] Cells were incubated for 6 days and developed as described above. Results were plotted as a percentage of the T0 value, normalized to 100%, versus concentration of compound. A 4-parameter equation was used to generate concentration response curves. Growth IC50 (gIC50) values were calculated at the mid-point of the growth window (between DMSO and T0 values). Ymin-T0 values were calculated by subtracting the T0 value (100%) from the Ymin value on the curve, and are a measure of net population cell growth or death.

In test [2] the test system is SK-N-AS. Also on record: species or system neuroblastoma cell lines; 6 day growth-death assay, CyQuant Direct read-out, mid-point of growth window (DMSO to T0). Conditions: Homo sapiens, SK-N-AS, 144 h; CyQuant, 6 days; read-out: gIC50 CyQuant. The protocol: as §1
Test [3] concerns SK-N-BE(2). Also on record: species or system neuroblastoma cell lines; 6 day growth-death assay, CyQuant Direct read-out, mid-point of growth window (DMSO to T0). The conditions noted are these: Homo sapiens, SKNBE2, 144 h; CyQuant, 6 days; read-out: gIC50 CyQuant. The procedure:
as §1

Test [4] deals with CHP-212. Details: species or system neuroblastoma cell lines; 6 day growth-death assay, CyQuant Direct read-out, mid-point of growth window (DMSO to T0). The conditions noted are these: Homo sapiens, CHP-212, 144 h; CyQuant, 6 days; read-out: gIC50 CyQuant. The protocol: as §1
For test [5], the system named is LA1-5s. Also on record: species or system neuroblastoma cell lines; 6 day growth-death assay, CellTiter-Fluor read-out, mid-point of growth window (DMSO to T0). Conditions: Neuroblastoma cell, 144 h; CellTiter-Fluor, 6 days; read-out: gIC50 CellTiter-Fluor. The protocol:
as §1

Test [6] has as its system SK-N-AS. Details: species or system neuroblastoma cell lines; 6 day growth-death assay, CellTiter-Fluor read-out, mid-point of growth window (DMSO to T0). The conditions noted are these: Homo sapiens, SK-N-AS, 144 h; CellTiter-Fluor, 6 days; read-out: gIC50 CellTiter-Fluor. The procedure:
as §1

Test [7] concerns SK-N-BE(2). Also on record: species or system neuroblastoma cell lines; 6 day growth-death assay, CellTiter-Fluor read-out, mid-point of growth window (DMSO to T0). The conditions noted are these: Homo sapiens, SKNBE2, 144 h; CellTiter-Fluor, 6 days; read-out: gIC50 CellTiter-Fluor. The procedure:
as §1

The test system of test [8] is CHP-212. Also on record: species or system neuroblastoma cell lines; 6 day growth-death assay, CellTiter-Fluor read-out, mid-point of growth window (DMSO to T0). The conditions noted are these: Homo sapiens, CHP-212, 144 h; CellTiter-Fluor, 6 days; read-out: gIC50 CellTiter-Fluor. The procedure: as §1

Read-outs that look alike come from different tables or passages of the source.

Take `CC(=O)N1c2ccc(-c3ccc(C(=O)O)cc3)cc2[C@H](Nc2ccc(Cl)cc2)C[C@@H]1C` [I-BET726]: the GI50 came to 10 nM in test [1]; 135 nM in test [2]; 80 nM in test [3]; 10 nM in test [4]; 25 nM in test [5]; 130 nM in test [6]. In addition, the GI50 in test [7] turned out to be 20 nM; in test [8], 30 nM.
